According to US20250134855A1, “CO[…] AND METHODS OF USING SAME” (LYKOS THERAPEUTICS, INC., priority 2022, published 2025):

How the values were obtained:
[1] = Study MPKF: safety and tolerability (AEs, laboratory, vital signs); type: in vivo, human; settings: human, plasma, oral, 120 mg, 1 participant, no AEs reported
Source text: (§1) The MPKF was a Phase 1, open-label, randomized sequence, multi-dose, 2-period crossover food effect study in 16 healthy individuals. The MPKF study evaluated plasma concentrations of both MDMA and the active metabolite 3,4-methylenedioxyamphetamine (MDA). Summary PK Parameters of the preliminary data was based on interim analysis are presented in Table 12 Table 12 Table 12, and Table 13 Table 13 Table 13 for MDMA and MDA, respectively.
(§2) Participants remained at the clinical research unit (CRU) for each Dosing Session from the time of check-in on the night before dosing until discharge 48 hours after dosing for collection of serial blood samples for PK analysis and safety monitoring. IMP was administered on Day 1 following the treatment sequence to which the participant was randomized. An additional outpatient visit occurred 72 hours after dosing to collect a final PK sample, commensurate with the expected PK profiles of MDMA and MDA. Safety assessments were also performed at this visit.
(§3) The washout period between Dosing Sessions was at least 14 days. If a participant experienced emesis within 4 hours of administration, they were to be withdrawn from the study and replaced with a new participant. An End of Study Visit was performed 2 to 10 days after the completion of the final Dosing Session 72-hour follow-up. An informal interim analysis was planned to be conducted after at least 5 participants completed at least 1 Dosing Session to examine PK variability.

healthy individuals = assay: as above; type: in vivo, human
Source text: as §1, §2, §3

[2] = tested on: participants with severe PTSD; assay: MAPP1 Phase 3: CAPS-5 total severity score; type: in vivo, human; settings: for CFB in CAPS-5 Total Severity Score, LS mean for treatment difference (95% CI) / CFB in CAPS-5 Total Severity Score, LS mean / CAPS-5 Total Severity Score, Mean / CAPS-5 Total Severity Score, Median / CFB in CAPS-5 Total Severity Score, Mean / CFB in CAPS-5 Total Severity Score, Median / Loss of Diagnosis, % / Non-Responder (<10-point reduction in CAPS-5 Total Severity Score), % / Remission, % / Responder (≥10-point reduction in CAPS-5 Total Severity Score), %: MAPP1, mITT; for CFB in CAPS-5 Total Severity Score, LS mean for treatment difference (95% CI): vs placebo with therapy
Source text: FIG. 36 and FIG. 37 show the time course of improvement in Clinician Administered PTSD Scale for DSM-5 (CAPS-5) total severity score versus placebo. Each show a treatment difference between MDMA and placebo after 3 medication sessions with psychological intervention. […] Between the second and third treatment sessions, the difference between the groups appeared to continue to increase in both studies. The primary efficacy measure was change from baseline in the CAPS-5 total severity score at 18 weeks, which was evaluated 2 months after the final dosing session. The CAPS-5 is a 30-item, clinician-rated scale used to assess severity of PTSD symptoms and diagnostic status according to DSM-5 criteria, as described herein. Scores on the CAPS 5 range from 0 to 80, with higher scores indicating more severe PTSD symptoms. In both studies, a secondary efficacy measure was change from baseline in Sheehan Disability Scale (SDS) mean item scores at 18 weeks. The modified SDS is a 3-item, clinician-rated scale measuring the degree of functional impairment in work, family, and social life. Scores on the SDS mean items range from 0 to 10, with higher scores indicating more functional impairment. In these studies, the efficacy assessments were administered by blinded independent raters 18 to 30 days after medication sessions 1 and 2.
A flexible dose of MDMA hydrochloride salt (referred to as MDMA throughout) or placebo, followed by a supplemental half-dose unless contraindicated, was administered during the Treatment Period with manualized psychotherapy in three blinded monthly Experimental Sessions. This ˜12-week Treatment Period was preceded by three Preparatory Sessions. During the Treatment Period, each Experimental Session was followed by three Integrative Sessions of non-drug psychotherapy. Experimental Sessions were followed by an overnight stay. The Primary Outcome measure, the change in Clinician Administered PTSD Scale (CAPS-5), was assessed by a blinded centralized Independent Rater (IR) pool multiple times throughout the study. Three blinded manualized Experimental Sessions of psychotherapy assisted by flexible doses of MDMA·HCl or placebo were administered (see Table 28 below). Initial doses per Experimental Session include 80 mg or 120 mg MDMA compounded with mannitol and magnesium stearate or indistinguishable weight placebos comprised entirely of mannitol and magnesium stearate, followed 1.5 to 2 hours later by a supplemental half-dose (40 mg or 60 mg MDMA·HCl or placebo). Total amounts of MDMA·HCl to be administered per Experimental Session range from 80 mg to 180 mg. All drug is encapsulated with HPMC capsules.
In the first Experimental Session, the initial dose was 80 mg MDMA·HCl or placebo. In the second and third Experimental Sessions, the initial dose may be increased to 120 mg MDMA·HCl or placebo unless contraindicated. The choice of whether to keep the dose the same or change it from the first Experimental Session was made by the therapy team the in consultation with the site physician based on observed response, tolerability to the previously administered dose, and discussion with the participant. In each Experimental Session, 1.5 to 2 hours after the initial dose is given, the participant was administered a supplemental half-dose unless contraindicated. If an AE requiring medical attention occurs between the initial and supplemental dose this was evaluated as a potential contraindication by the site physician. If a participant prefers not to take the supplemental dose, the reason was documented. Participants will not know if they have been assigned MDMA or placebo but can indicate if they want the dose to change or remain the same.
The MDMA assisted therapy (MDMA-AT) approach is detailed in the “Manual for MDMA Assisted Therapy in the Treatment of PTSD,” published by MAPS (MDMA Treatment Manual, available at maps.org/treatment-manual). […]

MDR1 = MDR1 (Homo sapiens, UniProt P08183); assay: Transporter inhibition, MDR1
MDR1, sequence (P08183 whole entry): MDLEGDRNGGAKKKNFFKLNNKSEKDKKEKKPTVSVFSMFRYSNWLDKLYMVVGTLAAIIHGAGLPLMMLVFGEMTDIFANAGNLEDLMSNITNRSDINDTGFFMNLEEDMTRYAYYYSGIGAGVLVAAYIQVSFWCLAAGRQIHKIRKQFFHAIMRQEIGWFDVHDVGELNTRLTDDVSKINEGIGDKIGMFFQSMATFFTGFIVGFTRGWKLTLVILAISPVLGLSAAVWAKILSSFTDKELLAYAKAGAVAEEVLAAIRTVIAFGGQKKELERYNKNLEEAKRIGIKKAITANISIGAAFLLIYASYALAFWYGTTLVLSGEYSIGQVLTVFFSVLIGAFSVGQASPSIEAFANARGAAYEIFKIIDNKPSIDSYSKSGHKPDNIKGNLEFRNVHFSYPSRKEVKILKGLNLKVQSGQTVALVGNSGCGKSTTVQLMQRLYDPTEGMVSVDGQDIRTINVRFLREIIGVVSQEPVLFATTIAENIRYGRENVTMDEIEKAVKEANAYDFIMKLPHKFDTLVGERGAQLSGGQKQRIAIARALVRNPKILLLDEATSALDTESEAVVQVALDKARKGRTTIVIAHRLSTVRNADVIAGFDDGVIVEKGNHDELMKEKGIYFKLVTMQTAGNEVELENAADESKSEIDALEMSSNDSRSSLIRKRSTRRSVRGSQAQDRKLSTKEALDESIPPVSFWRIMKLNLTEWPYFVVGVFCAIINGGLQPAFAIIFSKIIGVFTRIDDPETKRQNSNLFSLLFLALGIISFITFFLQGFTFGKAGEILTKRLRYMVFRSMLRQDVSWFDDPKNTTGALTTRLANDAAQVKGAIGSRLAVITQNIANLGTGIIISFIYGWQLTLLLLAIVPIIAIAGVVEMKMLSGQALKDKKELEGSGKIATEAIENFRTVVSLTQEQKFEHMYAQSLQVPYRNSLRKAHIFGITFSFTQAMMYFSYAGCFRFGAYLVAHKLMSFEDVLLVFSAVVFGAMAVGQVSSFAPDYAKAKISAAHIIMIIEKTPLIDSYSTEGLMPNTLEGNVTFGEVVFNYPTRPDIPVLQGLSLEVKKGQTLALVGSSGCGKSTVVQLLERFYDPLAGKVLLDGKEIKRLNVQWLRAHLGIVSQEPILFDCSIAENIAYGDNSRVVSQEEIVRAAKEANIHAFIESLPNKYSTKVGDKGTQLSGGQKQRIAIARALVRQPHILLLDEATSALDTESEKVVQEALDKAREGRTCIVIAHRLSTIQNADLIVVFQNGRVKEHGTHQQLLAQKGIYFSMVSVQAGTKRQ

dogs = assay: 28-day repeat-dose toxicity, weekly oral, dogs; settings: any dose
[3] = de jure estimand, Baseline CAPS-5 T1 (Visit 3)
[4] = de jure estimand, CAPS-5 T2 (Visit 8)
[5] = de jure estimand, CAPS-5 T3 (Visit 13)
[6] = de jure estimand, CAPS-5 T4 (Visit 19)
[7] = de jure estimand, CFB to T2 (Visit 8)
[8] = de jure estimand, CFB to T3 (Visit 13)
[9] = de jure estimand, CFB to T4 (Visit 19)
[10] = T4 (primary) endpoint (Visit 19)

CNC(C)Cc1ccc2c(c1)OCO2 (centres unmarked) [MDMA, 3,4-methylenedioxymethamphetamine]
AUC(0-inf) ([1]; read-out: AUC0-inf at which tolerability is supported): 8920 ng·h/mL
Cmax ([1]; read-out: Cmax at which tolerability is supported): 440 ng/mL
participants with SBP≥160 mmHg or DBP≥100 mmHg or temperature>38.3° C. (healthy individuals; any timepoint): No participant
time of largest mean changes in SBP, DBP, temperature (healthy individuals; fasted condition): 2 h
time of largest mean changes in SBP, DBP, temperature (healthy individuals; fed group): 4 h
difference in largest mean change of SBP, fasted vs fed (healthy individuals; non-clinically significant): about +5 mmHg
difference in largest mean change of temperature, fasted vs fed (healthy individuals; non-clinically significant): ~+0.05 °C
impact on biologic laboratory parameters (healthy individuals; screening to end of study): no significant impact
onset of treatment efficacy (CAPS-5 versus placebo) ([2]; FIG. 36 and FIG. 37, both studies): after the second session
CFB in CAPS-5 Total Severity Score, LS mean for treatment difference (95% CI) ([2]; MMRM, T2 (Visit 8)): −3.69 (−7.93, 0.54)
CFB in CAPS-5 Total Severity Score, LS mean for treatment difference (95% CI) ([2]; MMRM, T3 (Visit 13)): −8.41 (−13.53, −3.29)
CFB in CAPS-5 Total Severity Score, LS mean for treatment difference (95% CI) ([2]; MMRM, T4 (Visit 19)): −11.86 (−17.41, −6.32)
CFB in CAPS-5 Total Severity Score, LS mean ([2]; de jure estimand, MMRM, CFB to T2 (Visit 8)): −10.40
CFB in CAPS-5 Total Severity Score, LS mean ([2]; de jure estimand, MMRM, CFB to T3 (Visit 13)): −17.83
CFB in CAPS-5 Total Severity Score, LS mean ([2]; de jure estimand, MMRM, CFB to T4 (Visit 19)): −24.50
CAPS-5 Total Severity Score, Mean [2, 3]: 44.0
CAPS-5 Total Severity Score, Median [2, 3]: 43.5
CAPS-5 Total Severity Score, Mean [2, 4]: 33.7
CAPS-5 Total Severity Score, Median [2, 4]: 34.5
CAPS-5 Total Severity Score, Mean [2, 5]: 26.2
CAPS-5 Total Severity Score, Median [2, 5]: 28.0
CAPS-5 Total Severity Score, Mean [2, 6]: 19.5
CAPS-5 Total Severity Score, Median [2, 6]: 18.5
CFB in CAPS-5 Total Severity Score, Mean [2, 7]: −10.3
CFB in CAPS-5 Total Severity Score, Median [2, 7]: −9.0
CFB in CAPS-5 Total Severity Score, Mean [2, 8]: −17.7
CFB in CAPS-5 Total Severity Score, Median [2, 8]: −17.5
CFB in CAPS-5 Total Severity Score, Mean [2, 9]: −24.4
CFB in CAPS-5 Total Severity Score, Median [2, 9]: −25.0
Loss of Diagnosis, % ([2]; T2 endpoint (Visit 8)): (23.9) %
Non-Responder (<10-point reduction in CAPS-5 Total Severity Score), % ([2]; T2 endpoint (Visit 8)): (54.3) %
Remission, % ([2]; T2 endpoint (Visit 8)): (8.7) %
Responder (≥10-point reduction in CAPS-5 Total Severity Score), % ([2]; T2 endpoint (Visit 8)): (45.7) %
Loss of Diagnosis, % ([2]; T3 endpoint (Visit 13)): (57.1) %
Non-Responder (<10-point reduction in CAPS-5 Total Severity Score), % ([2]; T3 endpoint (Visit 13)): (26.2) %
Remission, % ([2]; T3 endpoint (Visit 13)): (11.9) %
Responder (≥10-point reduction in CAPS-5 Total Severity Score), % ([2]; T3 endpoint (Visit 13)): (73.8) %
Loss of Diagnosis, % [2, 10]: (66.7) %
Non-Responder (<10-point reduction in CAPS-5 Total Severity Score), % [2, 10]: (11.9) %
Remission, % [2, 10]: (33.3) %
Responder (≥10-point reduction in CAPS-5 Total Severity Score), % [2, 10]: (88.1) %
change from Baseline to Visit 19 in CAPS-5 total severity scores ([2]; MAPP1, MMRM, de jure estimand, mITT): −24.50
no longer met PTSD diagnostic criteria ([2]; MAPP1, Visit 19): 66.7%
remission (CAPS-5 ≤11 and no longer meeting PTSD diagnostic criteria) ([2]; MAPP1, Visit 19): 33.3%
responders (≥10-point reduction in CAPS-5 total severity score) ([2]; MAPP1, Visit 19): 88.1%
inhibition of MDR1 (MDR1): not an inhibitor
neurohistopathology of the brain (dogs): No morphologic changes
